Patent publication US20240217953A1, “BICYCLIC SUBSTITUTED AROMATIC CARBOXYLIC ACID COMPOUNDS” (CHIA TAI TIANQING PHARMACEUTICAL GROUP CO., LTD., priority 2021, published 2024)

Columns and labels:
[1] = biological target: human complement Factor B protein (Homo sapiens, UniProt P00751); test: Human complement Factor B protein binding determination (TR-FRET method); settings: biotinylated Factor B 25 nM, Cy5-labeled probe 75 nM, PBS pH 7.4, 2 h
Method: To determine the binding activity of the test compounds to human complement Factor B protein by using TR-FRET method.
Drugs were added to phosphate buffered saline PBS (pH 7.4) starting at 10 μM with 4-fold dilution and 10 concentrations in total. […] Time-resolved fluorescence resonance energy transfer (TR-FRET) data was measured using 330 nm as the excitation wavelength and 665 nm as the emission wavelength.

[2] = biological target: complement alternative pathway in human serum; test: Inhibition of Wieslab complement alternative pathway activation (enzyme activity determination); type: biochemical; settings: human serum diluted 1:23, Wieslab alternative pathway kit, absorbance at 405 nm; read-out: IC50 for alternative pathway membrane attack complex (AP MAC)
Method: To determine the inhibitory activity of the test compounds against the complement alternative pathway in human serum by using a Wieslab complement system alternative pathway kit.
The serum was diluted with a diluent (1:23). Drugs were added to the diluted serum in 8 concentration gradients, with the highest concentration of 10 mM or 50 mM and 5-fold gradient dilution. The resulting mixture was incubated at room temperature for 15 min. The compound and the serum mixture were added to a 96-well plate (100 μL/well) provided in the kit and activated at 37° C. for 1 h. The mixture was washed three times with a washing buffer. The detection antibody (100 μL) provided in the kit was added and the mixture was incubated at room temperature for 30 min. The mixture was washed three times with a washing buffer. A substrate (100 μL) was added and the mixture was incubated at room temperature for 30 min. The absorbance at 405 nm was measured using a microplate reader.

[3] = Pharmacokinetic study in rats; type: in vivo; settings: rat; male SD rats, oral intragastric administration, 10 mg/kg, plasma
Method: To determine the drug concentration in the plasma of the test animals (male SD rats) at different time points after oral intragastric administration of the compounds disclosed herein by an LC/MS/MS method. To investigate the pharmacokinetic performance of the compounds disclosed herein in rats and to evaluate the pharmacokinetic characteristics.
Healthy male rats weighing 200-300 g, 2 rats in each group.
The compound disclosed herein was formulated into a 1 mg/mL clear solution with an aqueous solution of 0.5% MC (4000 cP)/0.5% Tween 80. Rats, after fasting overnight, were subjected to oral intragastric administration at a dose of 10 mg/kg. Blood was collected before administration and 0.25, 0.5, 1, 2, 4, 7, and 24 h after the administration, placed in heparin anticoagulation tubes, and centrifuged at 7000 rpm (5204 g) at 4° C. The plasma was separated and stored at −80° C. Four hours after administration, feeding was resumed. LC/MS/MS method was used to determine the content of the test compound in the plasma of the rats after oral administration. The plasma samples were analyzed after pretreatment to precipitate proteins.

Chain of human complement Factor B protein (P00751 26-764): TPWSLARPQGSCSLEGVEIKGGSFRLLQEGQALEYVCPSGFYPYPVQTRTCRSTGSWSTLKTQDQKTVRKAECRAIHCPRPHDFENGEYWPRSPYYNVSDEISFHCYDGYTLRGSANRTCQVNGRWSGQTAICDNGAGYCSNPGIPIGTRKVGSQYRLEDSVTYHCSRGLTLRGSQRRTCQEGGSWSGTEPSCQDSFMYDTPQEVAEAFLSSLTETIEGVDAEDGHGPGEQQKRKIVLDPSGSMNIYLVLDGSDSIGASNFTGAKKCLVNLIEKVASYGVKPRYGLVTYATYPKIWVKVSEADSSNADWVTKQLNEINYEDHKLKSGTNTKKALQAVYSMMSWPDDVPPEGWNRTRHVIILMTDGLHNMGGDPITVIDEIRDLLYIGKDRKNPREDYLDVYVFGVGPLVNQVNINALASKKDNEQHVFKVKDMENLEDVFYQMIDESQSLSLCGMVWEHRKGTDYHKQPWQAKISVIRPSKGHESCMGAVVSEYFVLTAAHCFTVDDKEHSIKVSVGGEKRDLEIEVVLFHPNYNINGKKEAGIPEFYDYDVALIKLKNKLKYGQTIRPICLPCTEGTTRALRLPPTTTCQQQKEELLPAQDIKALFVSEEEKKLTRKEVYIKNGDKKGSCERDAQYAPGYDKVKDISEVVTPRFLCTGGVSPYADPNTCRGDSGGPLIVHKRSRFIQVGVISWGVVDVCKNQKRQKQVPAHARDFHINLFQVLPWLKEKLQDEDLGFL

## COc1cc(C)c2[nH]ccc2c1CN1C2CCCC1(c1ccc(C(=O)O)cc1)CC2 (single isomer, unassigned) [Compound 7A]
[1]
  IC50: < 0.1 µM
[2]
  IC50: < 0.1 µM

## COc1cc(C)c2[nH]ccc2c1CN1CCC2CC1(c1ccc(C(=O)O)cc1)CCN2CC(F)(F)F (stereo not drawn) [Compound 2]
[3]
  AUC(0-t): 14.7 µM·h
  Cmax: 3.25 µM
  Tmax: 0.5 h
  half-life: 4.65 h
[2]
  IC50: < 0.1 µM

## COc1cc(C)c2[nH]ccc2c1CN1C2CCC1(c1ccc(C(=O)O)cc1)CC(C)C2 (stereo not drawn) [Compound 12]
[1]
  IC50: < 0.1 µM

## CCOC1CC2CCC(c3ccc(C(=O)O)nc3)(C1)N2Cc1c(OC)cc(C)c2[nH]ccc12 (stereo not drawn) [Compound 11]
[1]
  IC50: < 0.1 µM

## COc1cc(C)c2[nH]ccc2c1CN1CCC2CC1(c1ccc(C(=O)O)cc1)CCN2CC(F)F (stereo not drawn) [Compound 3]
[2]
  IC50: < 0.1 µM

## CCOC1CC2CCC(c3ccc(C(=O)O)cn3)(C1)N2Cc1c(OC)cc(C)c2[nH]ccc12 (single isomer, unassigned) [Compound 9A]
[1]
  IC50: < 0.1 µM
[2]
  IC50: < 0.1 µM
